Measurements published in patent publication US12590066B2, “Fused-heterocyclyl-carbonohydrazonoyl dicyanide compounds and use thereof” (KOREA INSTITUTE OF SCIENCE AND TECHNOLOGY, priority 2020, dated 2026).

Experiments:
[1] = target: T1, tau protein (Homo sapiens, UniProt P10636); assay: Tau-BiFC cell model, inhibition of Forskolin-induced tau protein aggregation; type: cell-based; details: Forskolin 30 μM, 48 hours; for Tau BiFC in cells Response (% @10 μM): 10 μM compound, Forskolin-only group = 100% tau protein-aggregated state; for IC50: tau-BiFC cells
T1 construct: BiFC fluorescent-protein fragments (type and halves not specified); expressed in transfected cells
T1 sequence (P10636 1-441 isoform P10636-8): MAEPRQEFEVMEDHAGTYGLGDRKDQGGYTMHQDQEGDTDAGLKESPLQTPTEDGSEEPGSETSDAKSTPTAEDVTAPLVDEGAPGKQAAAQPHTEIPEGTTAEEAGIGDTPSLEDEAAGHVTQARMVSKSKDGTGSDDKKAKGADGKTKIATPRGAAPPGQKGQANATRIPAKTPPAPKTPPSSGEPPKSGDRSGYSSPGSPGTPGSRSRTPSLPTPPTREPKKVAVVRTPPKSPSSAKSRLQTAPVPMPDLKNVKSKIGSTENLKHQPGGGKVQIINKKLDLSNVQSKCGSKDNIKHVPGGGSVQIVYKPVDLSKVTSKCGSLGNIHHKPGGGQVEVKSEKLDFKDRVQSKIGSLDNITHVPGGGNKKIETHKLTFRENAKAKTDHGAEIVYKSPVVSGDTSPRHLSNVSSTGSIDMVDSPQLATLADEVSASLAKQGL
Method: In order to select novel tau protein aggregation-inhibiting substances, tau-BiFC cell model, in which formation of tau oligomers in living cells is easily observed, was used. Tau-BiFC cells were aliquoted into a 384-well plate. On the next day, the cells were treated with each of the compounds prepared according to Examples 1 to 57 at concentrations of 1 μM, 3 μM, and 10 μM, together with Forskolin (at a treatment concentration of 30 μM), which is a compound inducing tau protein aggregation by activating tau phosphorylase PKA. After 48 hours, nuclei in the cells were stained using Hoechst (at a treatment concentration of 2 μg/mL), and BiFC fluorescence intensity was automatically measured using Operetta (PerkinElmer) to count stained nuclei in each well out of the entire well plate. The group treated only with Forskolin, which induces tau protein aggregation, was set to a reference point of a 100% tau protein-aggregated state, and the effects of the compounds were confirmed using the equation “BiFC fluorescence intensity due to compound synthesized according to embodiment of present invention/(fluorescence intensity of control group treated only with Forskolin inducing tau protein aggregation−fluorescence intensity of untreated control group)×100”. Furthermore, the degree of cytotoxicity induced by the newly synthesized compound was also measured based on the 100% cell viability of the group treated only with Forskolin as a reference, and the cytotoxicity value of each compound was calculated using the equation “(number of stained nuclei in group treated with compound/number of stained nuclei in group treated with Forskolin)×100”. Based on the treatment results, substances inhibiting intracellular tau protein aggregation were selected from a series of candidate groups showing a tau protein aggregation inhibition rate of 70% or more and cell viability of 100% at a compound treatment concentration of 10 μM or more.
In order to evaluate dose-dependent tau protein aggregation inhibition effects of the compounds selected according to Experimental Example 1 on tau protein aggregation, tau-BiFC cells were treated with the selected compounds at concentrations of 0.03 μM, […], 0.3 μM, 1 μM, 3 μM, 10 μM, and 30 μM, respectively, together with Forskolin (at a treatment concentration of 30 μM), which is a tau protein aggregation-inducing substance. After 48 hours, tau protein aggregation reaction and degrees of cytotoxicity were analyzed by observing images of the cells. IC50 and toxicity of the compounds were analyzed by way of nonlinear regression analysis of prism software (Graph Pad).

[2] = target: T2, CYP2C19 (Homo sapiens, UniProt P33261); assay: Inhibitory effect on CYP coenzyme activity, human liver microsomes; type: in vitro ADME; details: 10 μM compound, human liver microsomes 0.25 mg/mL, substrate S-mephenytoin, 15 minutes
T2 construct: human liver microsomes (0.25 mg/mL); from tissue; host or cells: human liver microsomes
T2 sequence (P33261 whole entry): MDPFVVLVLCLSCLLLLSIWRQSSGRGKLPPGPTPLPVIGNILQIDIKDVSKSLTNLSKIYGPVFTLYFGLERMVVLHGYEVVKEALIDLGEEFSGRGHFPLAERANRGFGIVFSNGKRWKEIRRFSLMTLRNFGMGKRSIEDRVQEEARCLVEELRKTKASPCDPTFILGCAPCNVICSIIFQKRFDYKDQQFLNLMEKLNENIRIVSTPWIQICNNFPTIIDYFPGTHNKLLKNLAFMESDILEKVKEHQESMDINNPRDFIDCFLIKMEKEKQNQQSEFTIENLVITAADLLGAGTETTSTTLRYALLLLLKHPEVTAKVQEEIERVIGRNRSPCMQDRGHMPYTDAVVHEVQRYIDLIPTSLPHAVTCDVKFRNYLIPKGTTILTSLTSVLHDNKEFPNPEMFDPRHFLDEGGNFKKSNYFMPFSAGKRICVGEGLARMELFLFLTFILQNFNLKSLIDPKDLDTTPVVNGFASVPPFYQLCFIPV
Method: (§1) The inhibitory effects of the compounds prepared according to Examples 1 to 57 on CYP coenzyme activity were identified. Specifically, human liver microsomes (0.25 mg/mL), a 0.1 M phosphate buffer solution (pH 7.4), a substrate drug cocktail of five types of drug metabolism enzymes (50 μM phenacetin, 10 μM diclofenac, 100 μM S-mephenytoin, 5 μM dextromethorphan, and 2.5 μM midazolam), and the compound at a concentration of 0 μM or 10 μM were mixed and pre-cultured at 37° C. for 5 minutes, and then further cultured at 37° C. for 15 minutes together with an NADPH generation system solution added thereto. Thereafter, the reaction was terminated by adding an acetonitrile solution containing an internal standard material (terfenadine) and centrifuged for 5 minutes (14,000 rpm, 4° C.), and then a supernatant was injected into an LC-MS/MS system for simultaneous analysis of metabolites of the substrate drugs to thereby evaluate the inhibitory effects on drug metabolism.
(§2) Metabolites of each CYP coenzyme indicator drug generated through the reaction were analyzed using the Shimadzu Nexera XR system and TSQ Vantage (Thermo). In an HPLC column, Kinetex C18 (2.1 mm×100 mm, 2.6 μm, particle size; Phenomenex, USA) was used, and mobile phases were (A) distilled water containing 0.1% formic acid and (B) acetonitrile containing 0.1% formic acid, and a gradient program shown in Table 3 was applied thereto.
(§3) The generated metabolites were quantified using a multiple reaction monitoring (MRM) quantification mode, and Xcalibur (version 1.6.1) was used for data analysis. In order to express inhibitory effects of the novel compound prepared according to the examples of the present invention on CYP coenzyme activity, CYP coenzyme activities (%) with respect to the control group not treated with the compound are shown in Table 4 below.

[3] = target: T3, CYP2C9 (Homo sapiens, UniProt P11712); assay: as above; type: in vitro ADME; details: 10 μM compound, human liver microsomes 0.25 mg/mL, substrate diclofenac, 15 minutes
T3 construct: human liver microsomes (0.25 mg/mL); from tissue; host or cells: human liver microsomes
T3 sequence (P11712 whole entry): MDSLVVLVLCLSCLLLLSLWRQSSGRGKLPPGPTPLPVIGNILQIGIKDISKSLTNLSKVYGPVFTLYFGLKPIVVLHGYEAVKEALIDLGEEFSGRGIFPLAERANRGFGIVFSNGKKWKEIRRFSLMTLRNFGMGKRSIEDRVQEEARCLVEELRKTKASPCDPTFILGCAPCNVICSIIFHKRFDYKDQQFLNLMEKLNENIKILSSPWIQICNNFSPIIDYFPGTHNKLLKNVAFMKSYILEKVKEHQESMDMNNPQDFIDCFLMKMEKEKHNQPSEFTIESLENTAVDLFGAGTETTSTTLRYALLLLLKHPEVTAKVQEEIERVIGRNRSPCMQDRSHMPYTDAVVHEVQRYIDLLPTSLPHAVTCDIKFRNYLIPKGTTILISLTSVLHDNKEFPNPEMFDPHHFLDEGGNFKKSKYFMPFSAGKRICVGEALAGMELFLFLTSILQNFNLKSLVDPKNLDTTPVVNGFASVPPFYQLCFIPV
Method: as §1, §2, §3

[4] = target: T4, CYP1A2 (Homo sapiens, UniProt P05177); assay: as above; type: in vitro ADME; details: 10 μM compound, human liver microsomes 0.25 mg/mL, substrate phenacetin, 15 minutes
T4 construct: human liver microsomes (0.25 mg/mL); from tissue; host or cells: human liver microsomes
T4 sequence (P05177 1-516): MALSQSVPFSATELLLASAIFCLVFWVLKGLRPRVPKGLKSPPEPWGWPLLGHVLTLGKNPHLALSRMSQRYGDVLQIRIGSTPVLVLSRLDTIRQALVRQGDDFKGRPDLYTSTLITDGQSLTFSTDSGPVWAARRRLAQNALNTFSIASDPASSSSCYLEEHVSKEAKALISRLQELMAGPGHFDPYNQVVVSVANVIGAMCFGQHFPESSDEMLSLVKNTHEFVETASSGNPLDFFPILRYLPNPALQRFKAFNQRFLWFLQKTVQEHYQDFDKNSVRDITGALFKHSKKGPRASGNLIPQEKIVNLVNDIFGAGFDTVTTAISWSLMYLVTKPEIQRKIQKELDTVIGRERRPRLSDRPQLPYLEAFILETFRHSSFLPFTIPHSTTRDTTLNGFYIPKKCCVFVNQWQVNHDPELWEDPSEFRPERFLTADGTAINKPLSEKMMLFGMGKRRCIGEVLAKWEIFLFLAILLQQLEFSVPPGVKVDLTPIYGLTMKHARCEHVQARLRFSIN
Method: as §1, §2, §3

[5] = target: T5, CYP3A4 (Homo sapiens, UniProt P08684); assay: as above; type: in vitro ADME; details: 10 μM compound, human liver microsomes 0.25 mg/mL, substrate midazolam, 15 minutes
T5 construct: human liver microsomes (0.25 mg/mL); from tissue; host or cells: human liver microsomes
T5 sequence (P08684 whole entry): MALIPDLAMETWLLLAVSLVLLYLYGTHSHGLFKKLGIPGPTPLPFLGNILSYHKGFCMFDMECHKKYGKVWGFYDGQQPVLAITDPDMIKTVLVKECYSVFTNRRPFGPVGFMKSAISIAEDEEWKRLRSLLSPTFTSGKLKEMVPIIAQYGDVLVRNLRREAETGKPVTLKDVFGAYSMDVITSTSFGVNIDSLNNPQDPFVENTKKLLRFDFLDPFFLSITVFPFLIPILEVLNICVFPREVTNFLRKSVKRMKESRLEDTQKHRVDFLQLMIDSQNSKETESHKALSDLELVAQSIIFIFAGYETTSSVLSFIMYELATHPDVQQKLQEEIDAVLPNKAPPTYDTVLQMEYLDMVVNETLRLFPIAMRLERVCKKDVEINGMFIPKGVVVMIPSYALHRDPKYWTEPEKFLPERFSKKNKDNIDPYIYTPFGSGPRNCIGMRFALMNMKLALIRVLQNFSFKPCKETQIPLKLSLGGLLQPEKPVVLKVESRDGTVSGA
Method: as §1, §2, §3

[6] = target: T6, CYP2D6 (Homo sapiens, UniProt P10635); assay: as above; type: in vitro ADME; details: 10 μM compound, human liver microsomes 0.25 mg/mL, substrate dextromethorphan, 15 minutes
T6 construct: human liver microsomes (0.25 mg/mL); from tissue; host or cells: human liver microsomes
T6 sequence (P10635 whole entry): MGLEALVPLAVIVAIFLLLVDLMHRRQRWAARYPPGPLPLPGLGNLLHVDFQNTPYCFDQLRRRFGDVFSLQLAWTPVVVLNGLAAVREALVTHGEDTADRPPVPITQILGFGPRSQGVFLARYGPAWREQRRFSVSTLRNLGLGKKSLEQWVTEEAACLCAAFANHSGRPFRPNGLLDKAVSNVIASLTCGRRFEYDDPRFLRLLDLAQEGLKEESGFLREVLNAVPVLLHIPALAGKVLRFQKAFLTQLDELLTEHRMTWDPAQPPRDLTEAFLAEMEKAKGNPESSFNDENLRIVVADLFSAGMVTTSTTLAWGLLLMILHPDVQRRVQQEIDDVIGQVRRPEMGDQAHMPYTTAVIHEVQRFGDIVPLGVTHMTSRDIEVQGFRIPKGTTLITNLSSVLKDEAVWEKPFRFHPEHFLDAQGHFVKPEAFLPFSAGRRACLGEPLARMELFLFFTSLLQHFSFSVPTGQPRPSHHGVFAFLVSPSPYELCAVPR
Method: as §1, §2, §3

[7] = tested on: Tau-BiFC cells; assay: Cell viability (stained nuclei count) in Tau-BiFC cells; type: cell-based; details: 10 μM compound, 48 hours; Forskolin-only group = 100% cell viability
Method: In order to select novel tau protein aggregation-inhibiting substances, tau-BiFC cell model, in which formation of tau oligomers in living cells is easily observed, was used. Tau-BiFC cells were aliquoted into a 384-well plate. On the next day, the cells were treated with each of the compounds prepared according to Examples 1 to 57 at concentrations of 1 μM, 3 μM, and 10 μM, together with Forskolin (at a treatment concentration of 30 μM), which is a compound inducing tau protein aggregation by activating tau phosphorylase PKA. After 48 hours, nuclei in the cells were stained using Hoechst (at a treatment concentration of 2 μg/mL), and BiFC fluorescence intensity was automatically measured using Operetta (PerkinElmer) to count stained nuclei in each well out of the entire well plate. The group treated only with Forskolin, which induces tau protein aggregation, was set to a reference point of a 100% tau protein-aggregated state, and the effects of the compounds were confirmed using the equation “BiFC fluorescence intensity due to compound synthesized according to embodiment of present invention/(fluorescence intensity of control group treated only with Forskolin inducing tau protein aggregation−fluorescence intensity of untreated control group)×100”. Furthermore, the degree of cytotoxicity induced by the newly synthesized compound was also measured based on the 100% cell viability of the group treated only with Forskolin as a reference, and the cytotoxicity value of each compound was calculated using the equation “(number of stained nuclei in group treated with compound/number of stained nuclei in group treated with Forskolin)×100”. Based on the treatment results, substances inhibiting intracellular tau protein aggregation were selected from a series of candidate groups showing a tau protein aggregation inhibition rate of 70% or more and cell viability of 100% at a compound treatment concentration of 10 μM or more. […]

Compound	Tau BiFC in cells Response (% @10 μM) [1]	IC50 [1]	CYP2C19 coenzyme activity (%) with respect to control group not treated [2]	CYP2C9 coenzyme activity (%) with respect to control group not treated [3]	CYP1A2 coenzyme activity (%) with respect to control group not treated [4]	CYP3A4 coenzyme activity (%) with respect to control group not treated [5]	CYP2D6 coenzyme activity (%) with respect to control group not treated [6]	Cell viability (% @10 μM) [7]
Cc1cc(=O)n(C)c2ccc(NN=C(C#N)C#N)cc12 [Compound 27, (1,4-dimethyl-2-oxo-1,2-dihydroquinolin-6-yl)carbonohydrazonoyl dicyanide]	−41%	0.01 µM	96.3%	33.6%	58.7%	73.6%	86.7%	115%
CCn1c(=O)n(C)c2ncc(NN=C(C#N)C#N)cc21 [Compound 44, (1-ethyl-3-methyl-2-oxo-2,3-dihydro-1H-imidazo[4,5-b]pyridin-6-yl)carbonohydrazonoyl dicyanide]	10%							138%
CC(C)n1c(=O)n(C)c2ncc(NN=C(C#N)C#N)cc21 [Compound 45, (1-isopropyl-3-methyl-2-oxo-2,3-dihydro-1H-imidazo[4,5-b]pyridin-6-yl)carbonohydrazonoyl dicyanide]	−24%	0.2 µM						113%
Cn1c(=O)n(C(F)F)c2cc(NN=C(C#N)C#N)cnc21 [Compound 46, (1-(difluoromethyl)-3-methyl-2-oxo-2,3-dihydro-1H-imidazo[4,5-b]pyridin-6-yl)carbonohydrazonoyl dicyanide]	23%							131%
Cn1c(=O)n(-c2ccccc2)c2cc(NN=C(C#N)C#N)cnc21 [Compound 47, (3-methyl-2-oxo-1-phenyl-2,3-dihydro-1H-imidazo[4,5-b]pyridin-6-yl)carbonohydrazonoyl dicyanide]	13%							117%
CCn1c(=O)n(C(C)C)c2cc(NN=C(C#N)C#N)cnc21 [Compound 49, (3-ethyl-1-isopropyl-2-oxo-2,3-dihydro-1H-imidazo[4,5-b]pyridin-6-yl)carbonohydrazonoyl dicyanide]	−34%	0.05 µM						139%
CCn1c(=O)n(C(F)F)c2cc(NN=C(C#N)C#N)cnc21 [Compound 50, (1-(difluoromethyl)-3-ethyl-2-oxo-2,3-dihydro-1H-imidazo[4,5-b]pyridin-6-yl)carbonohydrazonoyl dicyanide]	2%							119%
Cn1c(=O)n(C2CC2)c2ncc(NN=C(C#N)C#N)cc21 [Compound 51, (3-cyclopropyl-1-methyl-2-oxo-2,3-dihydro-1H-imidazo[4,5-b]pyridin-6-yl)carbonohydrazonoyl dicyanide]	−11%	0.66 µM						137%
CCn1c(=O)n(C2CC2)c2ncc(NN=C(C#N)C#N)cc21 [Compound 52, (3-cyclopropyl-1-ethyl-2-oxo-2,3-dihydro-1H-imidazo[4,5-b]pyridin-6-yl)carbonohydrazonoyl dicyanide]	−30%	0.2 µM						133%
CC(C)n1c(=O)n(C)c2cc(NN=C(C#N)C#N)cnc21 [Compound 54, (3-isopropyl-1-methyl-2-oxo-2,3-dihydro-1H-imidazo[4,5-b]pyridin-6-yl)carbonohydrazonoyl dicyanide]	−38%	0.3 µM						118%
